pIC50: −log10 of the molar value.
molecular target: BCL2 (Homo sapiens (Human), UniProt P10415); assay: Molecular level activity test of anti-apoptotic protein BCL2 (HTRF, binding to Bim peptide); details: HTRF, binding of BCL2 to Bim peptide; read-out: BCL2 nM (inhibitory activity, IC50)
Method in brief: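 Disruption of the BCL2/Bim peptide interaction is detected by homogeneous time-resolved fluorescence, using anti-His and streptavidin-XL665 reagents against His-tagged protein and biotin-tagged peptide. Compound exposure lasts 1 h before reagent addition; plates then sit 4 h at room temperature.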

Sequence of BCL2 (P10415 whole entry): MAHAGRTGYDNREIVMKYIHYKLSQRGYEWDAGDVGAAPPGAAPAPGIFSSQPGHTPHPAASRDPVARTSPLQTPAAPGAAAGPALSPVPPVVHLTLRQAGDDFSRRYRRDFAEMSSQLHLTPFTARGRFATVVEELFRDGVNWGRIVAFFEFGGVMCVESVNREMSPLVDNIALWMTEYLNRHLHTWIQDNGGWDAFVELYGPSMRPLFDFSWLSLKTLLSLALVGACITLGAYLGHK

pIC50, > 8.00:
COc1ccc(CN2CCN(C3CC4(CCN(c5cc(Oc6cnc7[nH]ccc7c6)c(C(=O)NS(=O)(=O)c6cc([N+](=O)[O-])c(NCC7(F)CCOCC7)c7[nH]cnc67)cn5)CC4)C3)C(c3ccccc3C(C)C)C2)cc1 (centres unmarked) [compound 077, 4-((1H-pyrrolo[2,3-b]pyrid-5-yl)oxy)-N-((7-(((4-fluorotetrahydro-2H-pyran-4-yl)methyl)amino)-6-nitro-1H-benzo[d]imidazol-4-yl)sulfonyl)-6-(2-(2-(2-isopropylphenyl)-4-(4-methoxybenzyl)piperazin-1-yl)-7-azaspiro[3.5]non-7-yl) nicotinamide]
COc1ccc(CN2CCN(C3CC4(CCN(c5cc(Oc6cnc7[nH]ccc7c6)c(C(=O)NS(=O)(=O)c6cc([N+](=O)[O-])c(NCC7(F)CCOCC7)c7[nH]cnc67)cc5F)CC4)C3)C(c3ccccc3C(C)C)C2)cc1 (centres unmarked) [compound 078, 2-((1H-pyrrolo[2,3-b]pyrid-5-yl)oxy)-5-fluoro-N-((7-(((4-fluorotetrahydro-2H-pyran-4-yl)methyl)amino)-6-nitro-1H-benzo[d]imidazol-4-yl)sulfonyl)-4-(2-(2-(2-isopropylphenyl)-4-(4-methoxybenzyl)piperazin-1-yl)-7-azaspiro[3.5]non-7-yl)benzamide]
CC(C)c1ccccc1[C@@H]1CCCN1C1CC2(CCN(c3ccc(C(=O)NS(=O)(=O)c4cc([N+](=O)[O-])c(NC[C@H]5CC[C@](C)(O)CC5)c5[nH]cnc45)c(N4CCOc5nc6[nH]ccc6cc54)c3)CC2)C1 [compound 079, 2-(2,3-dihydropyrrolo[3′,2′:5,6]pyridino[2,3-b][1,4]oxazin-1 (6H)-yl)-N-((7-((((1r,4r)-4-hydroxy-4-methylcyclohexyl)methyl)amino)-6-nitro-1H-benzo[d]imidazol-4-yl)sulfonyl)-4-(2-((S)-2-(2-isopropylphenyl)pyrrolidin-1-yl)-7-azaspiro[3.5]non-7-yl)benzamide]
CC(C)c1ccccc1[C@@H]1CCCN1C1CC2(CCN(c3ccc(C(=O)NS(=O)(=O)c4cc([N+](=O)[O-])c(NCC5(F)CCN(C6COC6)CC5)c5[nH]cnc45)c(N4CCOc5nc6[nH]ccc6cc54)c3)CC2)C1 [compound 080, (S)-2-(2,3-dihydropyrrolo[3′,2′:5,6]pyridino[2,3-b][1,4]oxazin-1 (6H)-yl)-N-((7-(((4-fluoro-1-(oxocyclobut-3-yl)piperid-4-yl)methyl)amino)-6-nitro-1H-benzo[d]imidazol-4-yl)sulfonyl)-4-(2-(2-(2-isopropylphenyl)pyrrolidin-1-yl)-7-azaspiro[3.5]non-7-yl)benzamide]
CC(C)c1ccccc1[C@@H]1CCCN1C1CC2(CCN(c3cc(N4CCOc5nc6[nH]ccc6cc54)c(C(=O)NS(=O)(=O)c4cc([N+](=O)[O-])c(NC[C@H]5CC[C@](C)(O)CC5)c5[nH]cnc45)cn3)CC2)C1 [compound 081, 4-(2,3-dihydropyrrolo[3′,2′:5,6]pyridino[2,3-b][1,4]oxazin-1 (6H)-yl)-N-((7-((((1r,4r)-4-hydroxy-4-methylcyclohexyl)methyl)amino)-6-nitro-1H-benzo[d]imidazol-4-yl)sulfonyl)-6-(2-((S)-2-(2-isopropylphenyl)pyrrolidin-1-yl)-7-azaspiro[3.5]non-7-yl) nicotinamide]
CC(C)c1ccccc1[C@@H]1CCCN1C1CC2(CCN(c3cc(N4CCOc5nc6[nH]ccc6cc54)c(C(=O)NS(=O)(=O)c4cc([N+](=O)[O-])c(NC[C@H]5CC[C@](C)(O)CC5)c5[nH]cnc45)cc3F)CC2)C1 [compound 082, 2-(2,3-dihydropyrrolo[3′,2′:5,6]pyridino[2,3-b][1,4]oxazin-1 (6H)-yl)-5-fluoro-N-((7-((((1r,4r)-4-hydroxy-4-methylcyclohexyl)methyl)amino)-6-nitro-1H-benzo[d]imidazol-4-yl)sulfonyl)-4-(2-((S)-2-(2-isopropylphenyl)pyrrolidin-1-yl)-7-azaspiro[3.5]non-7-yl)benzamide]
CC(C)c1ccccc1[C@@H]1CCCN1C1CC2(CCN(c3cc(N4CCOc5nc6[nH]ccc6cc54)c(C(=O)NS(=O)(=O)c4cc([N+](=O)[O-])c(NCC5(F)CCN(C(C)C)CC5)c5[nH]cnc45)cn3)CC2)C1 [compound 083, (S)-4-(2,3-dihydropyrrolo[3′,2′:5,6]pyridino[2,3-b][1,4]oxazin-1 (6H)-yl)-N-((7-(((4-fluoro-1-isopropylpiperid-4-yl)methyl)amino)-6-nitro-1H-benzo[d]imidazol-4-yl)sulfonyl)-6-(2-(2-(2-isopropylphenyl)pyrrolidin-1-yl)-7-azaspiro[3.5]non-7-yl) nicotinamide]
CC(C)c1ccccc1[C@@H]1CCCN1C1CC2(CCN(c3cc(N4CCOc5nc6[nH]ccc6cc54)c(C(=O)NS(=O)(=O)c4cc([N+](=O)[O-])c(NCC5(F)CCN(C(C)C)CC5)c5[nH]cnc45)cc3F)CC2)C1 [compound 084, (S)-2-(2,3-dihydropyrrolo[3′,2′:5,6]pyridino[2,3-b][1,4]oxazin-1 (6H)-yl)-5-fluoro-N-((7-(((4-fluoro-1-isopropylpiperid-4-yl)methyl)amino)-6-nitro-1H-benzo[d]imidazol-4-yl)sulfonyl)-4-(2-(2-(2-isopropylphenyl)pyrrolidin-1-yl)-7-azaspiro[3.5]non-7-yl)benzamide]
CC(C)c1ccccc1[C@@H]1CCCN1C1CC2(CCN(c3ccc(C(=O)NS(=O)(=O)c4cc([N+](=O)[O-])c(NC[C@H]5CC[C@](C)(O)CC5)c5[nH]cnc45)c(N4CCCOc5nc6[nH]ccc6cc54)c3)CC2)C1 [compound 085, 2-(3,4-dihydro-2H-pyrrolo[3′,2′:5,6]pyridino[2,3-b][1,4]oxazacyclohept-1 (7H)-yl)-N-((7-((((1r,4r)-4-hydroxy-4-methylcyclohexyl)methyl)amino)-6-nitro-1H-benzo[d]imidazol-4-yl)sulfonyl)-4-(2-((S)-2-(2-isopropylphenyl)pyrrolidin-1-yl)-7-azaspiro[3.5]non-7-yl)benzamide]
CC(C)c1ccccc1[C@@H]1CCCN1C1CC2(CCN(c3ccc(C(=O)NS(=O)(=O)c4cc([N+](=O)[O-])c(NCC5(F)CCN(C(C)C)CC5)c5[nH]cnc45)c(N4CCCOc5nc6[nH]ccc6cc54)c3)CC2)C1 [compound 086, (S)-2-(3,4-dihydro-2H-pyrrolo[3′,2′:5,6]pyridino[2,3-b][1,4]oxazacyclohept-1 (7H)-yl)-N-((7-(((4-fluoro-1-isopropylpiperid-4-yl)methyl)amino)-6-nitro-1H-benzo[d]imidazol-4-yl)sulfonyl)-4-(2-(2-(2-isopropylphenyl)pyrrolidin-1-yl)-7-azaspiro[3.5]non-7-yl)benzamide]
CC(C)c1ccccc1[C@@H]1CCCN1C1CC2(CCN(c3ccc(C(=O)NS(=O)(=O)c4cc([N+](=O)[O-])c(NCC5(F)CCOCC5)c5[nH]cnc45)c(N4CCOc5nc6[nH]ccc6cc54)c3)CC2)C1 [compound 087, (S)-2-(2,3-dihydropyrrolo[3′,2′:5,6]pyridino[2,3-b][1,4]oxazin-1 (6H)-yl)-N-((7-(((4-fluorotetrahydro-2H-pyran-4-yl)methyl)amino)-6-nitro-1H-benzo[d]imidazol-4-yl)sulfonyl)-4-(2-(2-(2-isopropylphenyl)pyrrolidin-1-yl)-7-azaspiro[3.5]non-7-yl)benzamide]
